One data set addresses Na^+/H^+ exchange system (Homo sapiens, UniProt P19634). The following applies: recent clinical trial; cited from earlier work.
Another data set concerns RhoA. The data set can be described thus: RhoA in total and cytosolic-membrane fractions of cardiac tissue (immunoblotting). The format is in vivo, swine. Conditions: for total amount of RhoA: myocardium, […] post-reperfusion and 3 weeks post-MI. Here is the method:
RhoA (Santa Cruz) was determined in total and cytosolic-membrane fractions of jeopardized cardiac tissue of all animals as previously described by Vilahur G 2009 (ad supra).

Another data set relates to LDL. The data set can be described thus: Resistance of LDL against copper induced in vitro oxidation and TBARS. Type of data set: in vivo, swine. Conditions: 3 week oral treatment; p<0.05. The protocol: (§1) Blood samples were collected at 2.5 h post-reperfusion and 3 weeks post-MI to evaluate lipoprotein resistance to oxidation. The inventors firstly assessed HDL-antioxidant activity by a method based on the ability of HDL to reverse oxidation of LDL. Results were expressed as the percentage of total oxidized LDL considering that control oxLDL is 100%. In addition, resistance of LDL against copper induced in vitro oxidation was also determined in EDTA-blood samples as previously described. The inventors also determined the lipid peroxide content of oxidized-LDL by assessing thiobarbituric-acid-reactive substances (TBARS).

For another data set, the system named is PKCε. The data set is described as follows: PKCε expression/activation in the forming scar (Western blot). The format is in vivo, swine. The following applies: scar tissue, compared to placebo-control animals. Here is the method: (§2) Western Blot analysis: Protein levels of: 1) apoptosis markers (truncated-caspase-3); 2) cardioprotective kinases [PKC-ε and PKC-ε phosphorylated at Ser^729 (Santa Cruz) and Akt/PKB (Santa Cruz) and Akt phosphorylated at Ser^473 (Cell signaling)]; 3) total eNOS and eNOS phosphorilated at Ser^1177 (Cell Signaling); and 4) fibrosis [TGFP type II receptor (TPRII; Abcam) and phosphorylated-Smad2/3 (Ser^423/425; Santa Cruz)] were assessed.

The test system of data set [1] is pig model of closed-chest coronary balloon occlusion/reperfusion. The data set is described as follows: Myocardial lipotoxicity: oil red-O staining and lipid characterization (TLC) of scar and NIM. The following applies: 3 weeks post-MI. The format is in vivo, swine. Here is the method:
(§3) To that end, serially cut 5 µm sections from OCT-embedded samples were stained for lipids (oil red-O, ORO) and interstitial collagen (Sirius Red). Images were captured with a Nikon eclipse 80i microscope and digitalized by a Retiga-1300i. Staining was calculated by a single blinded observer from an average of 5-fields/sample as content (%)=[positive stained area/(total tissue area- vascular luminal areas)]x100 using ImageJ®.

The test system of data set [2] is Akt/eNOS signaling pathway. The data set can be described thus: Akt/eNOS signaling (Western blot) in myocardium and coronary arteries. The format is in vivo, swine. The protocol: as §2
In addition, 3 weeks post-MI, the coronary arteries of all animals were isolated, cleaned of surrounding tissue and snap frozen for further analysis of coronary phosphorylated-eNOS protein expression.

The test system of data set [3] is TβRII/Smad2/3 signaling pathway. The data set is described as follows: Reparative fibrosis of the forming scar (TβRII/Smad2/3, myofibroblasts, collagen). The format is in vivo, swine. Here is the method:
(§4) Transcriptomic analysis: It was analyzed by real-time PCR (Applied Biosystems) mRNA levels for: 1) apoptosis-related markers [extrinsic-(Fas Receptor/CD95 and caspase-8), intrinsic-(Bax, Bcl2, and P53) pathways and caspase-3]; 2) intracellular calcium handling receptors [sarcoendoplasmic reticulum Ca^2+ATPase 2 (SERCA2) and the ryanodine receptor (RyR2)]; and 3) fibrous tissue formation (collagen, Smad2 and Smad3). The threshold cycle values were determined and normalized to the housekeeping gene 18S rRNA.
as §2, §3
In addition, myofibroblasts detection in the scar tissue was performed by double staining with mouse monoclonal vimentin (Dako) and rabbit polyclonal alpha-SMA 1:50 (Abeam). Alexa fluor 488 donkey anti-mouse and alexa fluor 546 goat anti-rabbit were used as secondary antibodies, respectively and Hoechst for nuclear staining. Images were captured by confocal microscopy (20x).

Data set [4] has as its system pig model of closed-chest coronary balloon occlusion/reperfusion. The data set is described as follows: Transthoracic echocardiography (LVEF, SF). Type of data set: in vivo, swine. The protocol:
Transthoracic echocardiography assessment was performed in all animals before inducing ischemia (baseline), after 75 min of ischemia (prior β-OH-S infusion), 2.5 h post-reperfusion and 3 weeks post-MI using an echocardiographyc system Phillips iE33 equipped with a S5-1 Sector Array transducer. Left ventricle ejection fraction (LVEF) and shortening fraction (SF) were measured in the short-axis M-mode right parasternal projection in a plane below the mitral valves and perpendicular to the LV (left ventricle).

A further data set concerns oxLDL. The data set can be described thus: HDL-antioxidant activity (ability of HDL to reverse oxidation of LDL). Type of data set: in vivo, swine. The following applies: HDL isolated […] post-reperfusion; p<0.05. Here is the method: as §1
The subject of data set [5] is pig model of closed-chest coronary balloon occlusion/reperfusion. The data set is described as follows: Morphometric determination of infarct size (Evan's Blue / TTC). The format is in vivo, swine. The following applies: single loading dose 0.3 mg/kg i.v. prior reperfusion; p<0.05. The protocol:
This hyperlipidemic diet contains 24.82% proteins, 64.20% carbohydrates, 10.98% fats and 16,834.7 kJ. […] After this 10 day diet period animals underwent a closed-chest 90 min mid-left anterior descending (LAD) coronary balloon occlusion. […] At minute 90, the balloon was deflated to achieve coronary artery reperfusion. […] The incidence of reperfusion-related arrhythmias during the first 2.5 h upon balloon deflation was documented in all animals. Animals had continuous ECG and hemodynamic monitoring throughout all procedures. 2.5 h post-reperfusion Evan's Blue dye was injected in anesthetized animals through the left atrium to outline the area at risk (AAR) after which the hearts of the animals were arrested with potassium chloride and rapidly excised. Hearts were sectioned into 6 transverse slices parallel to the atrioventricular ring. Consecutive slices were alternatively collected for infarct size analysis (TTC; triphenyltetrazolium chloride staining) and molecular studies of the ischemic myocardium (IM) and non-ischemic myocardium (NIM).

The test system of data set [6] is apoptosis-related markers. The data set is described as follows: Apoptosis-related markers in ischemic myocardium (real-time PCR, Western blot, TUNEL). Type of data set: in vivo, swine. The protocol:
(§5) Tissue samples obtained from the IM (2.5 h post-reperfusion)/scar (3 weeks post-MI) and NIM of all animals were pulverized and homogenized in Tripure® or lysis buffer for RNA and protein isolation, respectively.
as §4, §2
Isolated mitochondrial extracts were incubated against Bcl-2 phosphorylated at Ser^87.

The subject of data set [7] is pig model of closed-chest coronary balloon occlusion/reperfusion. The data set can be described thus: Neutrophil detection in ischemic myocardium (anti-neutrophil elastase staining). Type of data set: in vivo, swine. The following applies: […] post-reperfusion, p<0.05. The protocol: (§6) Paraffin-embedded LAD and ischemic myocardial tissue of animals sacrificed 2.5 h post-reperfusion were cut into 5-µm-thick for 8-hydroxyguanosine staining (Abcam ab48508), a measurement indicative of oxidative stress-induced DNA-damage. In addition, optimal cutting temperature (OCT)-embedded ischemic myocardial tissue of animals sacrificed 2.5 h post-reperfusion was stained for neutrophils detection (anti-neutrophil elastase; Abcam). Staining was calculated by a single blinded observer from an average of 5-fields/animal as % of stained area. Images were captured by Nikon Eclipse 80i microscope and digitized by Retiga 1300i Fast camera.

For data set [8] the test system is unchanged. The data set can be described thus: Vascular/cardiac DNA-oxidative damage (8-hydroxyguanosine staining). The following applies: […] post-reperfusion. Type of data set: in vivo, swine. Here is the method:
as §6

A further data set deals with RyR2. The data set can be described thus: Real-time PCR of calcium handling receptor mRNA. Type of data set: in vivo, swine. The protocol: as §5, §4
The test system of another data set is SERCA2. The data set is described as follows: Real-time PCR of calcium handling receptor mRNA. Type of data set: in vivo, swine. The protocol:
as §5, §4

Data set [9] relates to mitochondria isolated from the ischemic myocardium. The data set is described as follows: Mitochondrial membrane potential by flow cytometry (JC-1). The format is in vivo, swine. Conditions: […] of reperfusion, p<0.05. Here is the method: Mitochondria were isolated from the ischemic myocardium of pigs subjected to 2.5 h of reperfusion as previously reported (Boehm et al. 2001 Am J Physiol Heart Circ Physiol 280: H977-983). Mitochondrial membrane potential (Δψm) was measured by flow cytometry using the ratiometric dye 5,5',6,6'-tetrachloro-1,1',3,3'-tetraethylbenzimidazol carbocyanine iodide (JC-1; Molecular Probes). Values were expressed as red fluorescence activity. Isolated mitochondria treated with valinomycin (Sigma), which decreases Δψm, were used as control.

Data set [10] has as its system pig model of closed-chest coronary balloon occlusion/reperfusion. The data set can be described thus: Reperfusion-related arrhythmias and hemodynamic monitoring. Type of data set: in vivo, swine. The protocol:
This hyperlipidemic diet contains 24.82% proteins, 64.20% carbohydrates, 10.98% fats and 16,834.7 kJ. […] After this 10 day diet period animals underwent a closed-chest 90 min mid-left anterior descending (LAD) coronary balloon occlusion. […] At minute 90, the balloon was deflated to achieve coronary artery reperfusion. […] The incidence of reperfusion-related arrhythmias during the first 2.5 h upon balloon deflation was documented in all animals. Animals had continuous ECG and hemodynamic monitoring throughout all procedures.

Setting [11] is: ischemic myocardium, […] post-reperfusion.

Results on three compounds are retold here after patent EP2949324A1, “Prevention and/or treatment of ischemia/reperfusion injury” (Consorci Institut Catala de Ciencies Cardiovasculars, priority 2014, dated 2015).

Na^+/H^+ exchange system, sequence (P19634 whole entry, the tested form may be a part): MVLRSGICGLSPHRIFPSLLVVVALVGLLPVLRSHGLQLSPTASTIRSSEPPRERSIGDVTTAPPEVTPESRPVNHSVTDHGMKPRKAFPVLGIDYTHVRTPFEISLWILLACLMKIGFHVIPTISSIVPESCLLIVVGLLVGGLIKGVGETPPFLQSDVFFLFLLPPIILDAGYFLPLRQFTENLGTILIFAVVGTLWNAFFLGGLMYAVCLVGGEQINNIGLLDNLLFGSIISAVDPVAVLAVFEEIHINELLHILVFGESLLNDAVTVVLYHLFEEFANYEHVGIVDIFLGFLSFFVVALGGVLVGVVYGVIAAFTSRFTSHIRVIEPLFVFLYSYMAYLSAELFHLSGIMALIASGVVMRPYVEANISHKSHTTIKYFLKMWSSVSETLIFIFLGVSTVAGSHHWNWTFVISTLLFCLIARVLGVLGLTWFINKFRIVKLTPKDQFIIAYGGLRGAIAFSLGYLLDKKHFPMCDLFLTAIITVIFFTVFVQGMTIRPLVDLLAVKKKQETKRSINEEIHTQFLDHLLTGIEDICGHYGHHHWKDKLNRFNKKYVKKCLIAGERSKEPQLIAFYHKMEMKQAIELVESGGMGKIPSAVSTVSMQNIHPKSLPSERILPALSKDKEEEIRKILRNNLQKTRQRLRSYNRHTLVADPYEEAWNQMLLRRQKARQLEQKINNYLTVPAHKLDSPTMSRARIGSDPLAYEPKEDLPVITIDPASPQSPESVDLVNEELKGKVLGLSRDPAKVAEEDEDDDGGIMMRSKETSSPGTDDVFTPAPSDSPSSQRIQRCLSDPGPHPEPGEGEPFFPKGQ

On to `CC(C)c1ccc(C(=O)NC(=N)N)cc1S(C)(=O)=O` [Cariporide], for which the “reperfusion injury (improved left ventricular (LV) dysfunction)” value on Na^+/H^+ exchange system was “attenuation of reperfusion injury”.

Consider `CCC(C)(C)C(=O)O[C@H]1C[C@@H](C)C=C2C=C[C@H](C)[C@H](CC[C@@H]3C[C@@H](O)CC(=O)O3)[C@H]21` [Simvastatin, (1S,3R,7S,8S,8aR)-8-{2-[(2R,4R)-4-hydroxy-6-oxotetrahydro-2H-pyran-2-yl]ethyl}-3,7-dimethyl-1,2,3,7,8,8a hexahydronaphthalen-1-yl 2,2-dimethylbutanoate], for which the “total amount of RhoA” value with RhoA is recorded as “unchanged”. Moreover, the “decrease of RhoA membrane translocation” value in the data set on RhoA (scar, after the 3-week oral treatment, p<0.001 vs control) is “persisted”. Also, in the data set with LDL, the “decrease in TBARS levels as compared to the experimental day” value was determined as 32% and the “prolongation of the lag time as compared to control/placebo animals” value worked out at 4 times. For the same compound, the “PKCε expression and activation” value with PKCε was “enhanced both the expression and activation”. The free-cholesterol content result in data set [1] (different cardiac zones) was “No differences”. The “less cholesteryl-ester accumulation as compared to placebo-controls” value in [1] (forming scar) was 50%. For the same compound, in [2] (coronary arteries at 3-weeks post-MI), the P-eNOS result is listed as “enhanced”. The P-Akt/P-eNOS pathway activation result in data set [2] (evolving scar up to 3 weeks post-AMI) is listed as “persisted”. Besides, the “Smad3 mRNA levels” value in data set [3] (different cardiac regions, 3 weeks post-MI) is “no changes”. Besides, the collagen fibrils deposition entry in data set [3] (healing scar, compared to control animals and NIM) is on record as “higher”. Further, the α-SMA/vimentin positive myofibroblasts entry in data set [3] (healing scar, data not shown) is listed as “higher detection”. Besides, in data set [3] (scar area, 3 weeks post-MI), the “Smad2/3 (downstream effector of TβRII)” value is given as “activation”; the TβRII protein expression entry is “marked and significant increase”. Further, the Smad2 gene expression entry in [3] (scar tissue, 3 weeks post-MI) was “significantly upregulated”. The “LVEF and SF improvement” value in [4] (up to 3 weeks post-MI, oral simvastatin) is recorded as “persisted”.

Take `CCC(C)(C)C(=O)OC1CC(C)C=C2C=CC(C)C(CCC(O)CC(O)CC(=O)O)C21` (stereo not drawn) [β-OH-S, β-hydroxy acid derivative of simvastatin]: the “RhoA membrane translocation (activation), membrane-to-cytosol ratio” value in the data set with RhoA (intravenous infusion, ischemic myocardium, […] post-reperfusion, p<0.001 vs control) was “markedly decreased”. In addition, the “total amount of RhoA” value with RhoA was “unchanged”. The “higher HDL antioxidant activity against LDL oxidation relative to controls” value in the data set with oxLDL is listed as 25%. Moreover, the “salvage of the LV-at-risk as compared to reperfusion alone” value in data set [5] amounted to 40%. Moreover, in data set [6] (setting [11]), the “mitochondrial Bcl-2 activation” value is recorded as “diminished”. Moreover, in data set [6] (setting [11]), the “truncated caspase-3 expression” value is listed as “reduced”. Also, the “apoptotic cell counts (TUNEL staining)” value in data set [6] (ischemic myocardium, compared to vehicle/control, data not shown) was “low apoptotic cell counts”. Besides, the “upregulation of genes of death receptor- and mitochondrial-related apoptotic pathways” value in [6] (jeopardized myocardium, […] post-reperfusion) is “prevented the upregulation”. Besides, the “attenuation of neutrophils infiltration as compared to vehicle/control” value in data set [7] is reported as roughly 70%. The “reperfusion-related oxidative DNA damage” value in data set [8] (coronary artery) and in data set [8] (ischemic myocardial tissue) was “absence of DNA oxidative damage” in each case. Besides, the “RyR2 mRNA” value came to 0.2±0.07 RyR2/18S rRNA with RyR2 (NIM) and 0.14±0.03 RyR2/18S rRNA in the data set with RyR2 (ischemic myocardium). Further, the “SERCA2 mRNA” value with SERCA2 (NIM) was 1.5±0.3 SERCA/18S rRNA; with SERCA2 (ischemic myocardium) it was 1.9±0.5 SERCA/18S rRNA. In addition, the P-Akt/P-eNOS pathway entry in data set [2] (ischemic myocardium, acute administration) is “activating”. Besides, the LVEF improvement in data set [4] ([…] after reperfusion) was found to be 9.4%. Also, in [4] ([…] after reperfusion), the SF improvement is recorded as 6.0%. Further, the “Δψm relative to vehicle/control” value in data set [9] stood at 2 times. The “incidence of reperfusion-related ventricular arrhythmias” value in data set [10] (first […] upon balloon deflation, 3 out of 12) is listed as 25 % animals. Besides, the “hemodynamic parameters (heart rate and mean blood pressure)” value in [10] (throughout the study) is on record as “not affected”.
